Reference: patent US20260130933A1, “PHARMACEUTICAL COMPOSITION FOR PREVENTION OR TREATMENT OF NEPHROPATHY AND/OR DIABETES MELLITUS, COMPRISING ENAVOGLIFLOZIN” (DAEWOONG PHARMACEUTICAL CO., LTD., priority 2022, published 2026)

Assay: Example 3: phase 3 trial, enavogliflozin 0.3 mg vs dapagliflozin 10 mg once a day for 24 weeks added to metformin and gemigliptin in patients with type 2 diabetes (same endpoints, rescue drug)
Assay type: in vivo, human
Description: 1) when Metformin (≥1,000 mg/Day) was Administered at a Constant Dose for at Least 8 Weeks Prior to Pre-Visit (Pre-Screening) • Metformin (≥1,000 mg/day) and gemigliptin (50 mg/day) were co-administered during the 8-week stabilization period. […] 4) when Metformin (≥1,000 mg/Day) and Gemigliptin (50 mg/Day) were Co-Administered at Constant Doses for at Least 8 Weeks Prior to Pre-Visit (Prescreening) • Without a separate stabilization period, Pre-visit (pre-screening) was Visit 1 (screening).
Subjects who met the inclusion/exclusion criteria continued to receive metformin and gemigliptin while receiving a placebo of the clinical trial drug in a single-blind (subject-blinded) state for a 2-week run-in period.
Here, the randomized subjects were stratified according to the administration therapy (co-administration with two or less agents (one or two agents) or three or more agents) of a conventional hypoglycemic agent (before washout of another hypoglycemic agent) within 24 weeks prior to obtaining written informed consent and by an HbA1c value (<8% or ≥8%) at Visit 1 (screening) measured in the central laboratory.
The randomized subjects were administered two tablets of the clinical trial drug corresponding to each administration group once a day, and then visited the institution at weeks 6, 12, 18, and 24 during the 24-week administration period to conduct efficacy and safety assessments. In addition, during the clinical trial period, they were instructed to exercise regularly and control their diet without changing their daily life patterns.
• 1) Change in HbA1c at week 24 after administration of clinical trial drug compared to Visit 2 (randomization)
• 1) Change in HbA1c at each time point of weeks 6, 12, and 18 after administration of clinical trial drug compared to Visit 2 (randomization) • 2) Change in FPG at each time point of weeks 6, 12, 18, and 24 after administration of clinical trial drug compared to Visit 2 (randomization) • 3) Proportion of subjects achieving HbA1c<7% at each time point of weeks 6, 12, 18, and 24 after administration of clinical trial drug • 4) Proportion of subjects achieving HbA1c<6.5% at each time point of weeks 6, 12, 18, and 24 after administration of clinical trial drug • 5) Proportion of subjects achieving therapeutic response (HbA1c change (HbA1c at Visit 2—HbA1c at each evaluation time point)>0.5% or HbA1c<7% at each evaluation time point compared to Visit 2 (randomization)) at each time point of weeks 6, 12, 18, and 24 after administration of clinical trial drug • 6) Proportion of subjects achieving therapeutic response (HbA1c change (HbA1c at Visit 2—HbA1c at each evaluation time point)>0.7% or HbA1c<7% at each evaluation time point compared to Visit 2 (randomization)) at each time point of weeks 6, 12, 18, and 24 after administration of clinical trial drug • 7) Proportion of subjects achieving therapeutic response (HbA1c change (HbA1c at Visit 2—HbA1c at each evaluation time point)>1% or HbA1c<7% at each evaluation time point compared to Visit 2 (randomization)) at each time point of weeks 6, 12, 18, and 24 after administration of clinical trial drug

[1] = week 6, per-protocol set, enavogliflozin 0.3 mg, dapagliflozin 10 mg
[2] = week 12, modified per-protocol set 1, enavogliflozin 0.3 mg vs dapagliflozin 10 mg
[3] = week 12, modified per-protocol set 1, enavogliflozin 0.3 mg, dapagliflozin 10 mg
[4] = week 12, modified per-protocol set 2

SMILES: OC[C@H]1O[C@@H](c2cc(Cc3ccc(C4CC4)cc3)c(Cl)c3c2CCO3)[C@H](O)[C@@H](O)[C@@H]1O [Enavogliflozin, (2S,3R,4R,5S,6R)-2-(7-chloro-6 (4-cyclopropylbenzyl)-2,3-dihydrobenzofuran-4-yl)-6-(hydroxymethyl)tetrahydro-2H-pyran-3,4,5-triol]
- Fasting C-peptide, Mean [1]: 0.67 ng/mL
- Fasting C-peptide, Median [1]: 0.63 ng/mL
- HbA1c, Mean [1]: 7.06%
- HbA1c, Median [1]: 6.94%
- Subjects achieving HbA1c target of <6.5%, (%) [1]: 11.21%
- Subjects achieving HbA1c target of <7%, % [1]: 56.03%
- body weight, Median [1]: 66.80 kg
- Subjects achieving therapeutic glycemic response 1, % (week 6, per-protocol set, response 1 = HbA1c change >0.5% or HbA1c <7%, enavogliflozin 0.3 mg, dapagliflozin 10 mg): 87.07%
- Subjects achieving therapeutic glycemic response 2, % (week 6, per-protocol set, response 2 = HbA1c change >0.7% or HbA1c <7%, enavogliflozin 0.3 mg, dapagliflozin 10 mg): 78.45%
- Subjects achieving therapeutic glycemic response 3, % (week 6, per-protocol set, response 3 = HbA1c change >1% or HbA1c <7%, enavogliflozin 0.3 mg, dapagliflozin 10 mg): 70.69%
- FPG change from baseline, LS mean (SE) (week 12): −27.17(1.54) mg/dL
- HDL-C change from baseline, LS mean (SE) (week 12): 3.18(0.62) mg/dL
- HOMA-β change from baseline, LS mean (SE) (week 12): 7.78(1.94)
- HbA1c change from baseline, LS mean (SE) (week 12): −0.87(0.04) % p
- LDL-C change from baseline, LS mean (SE) (week 12): 2.95(1.79) mg/dL
- UACR change from baseline, LS mean (SE) (week 12): −15.12(4.60) g/kg
- UGCR change from baseline, LS mean (SE) (week 12): 58.21(2.07) mg/mg
- adiponectin change from baseline, LS mean (SE) (week 12): 0.89(0.34) μg/mL
- body weight change from baseline, LS mean (SE) (week 12): −2.72(0.20) kg
- diastolic blood pressure change from baseline, LS mean (SE) (week 12): −4.30(0.69) mmHg
- fasting C-peptide change from baseline, LS mean (SE) (week 12): −0.09(0.02) ng/ml
- leptin change from baseline, LS mean (SE) (week 12): −1.97(0.48) ng/ml
- systolic blood pressure change from baseline, LS mean (SE) (week 12): −6.43(0.88) mmHg
- total cholesterol change from baseline, LS mean (SE) (week 12): 6.80(2.04) mg/dL
- triglyceride change from baseline, LS mean (SE) (week 12): −3.23(5.25) mg/dL
- FPG change from baseline, LS mean difference (week 12, vs dapagliflozin): -2.75 mg/dL
- HDL-C change from baseline, LS mean difference (week 12, vs dapagliflozin): 0.34 mg/dL
- HOMA-IR change from baseline, LS mean difference (week 12, vs dapagliflozin): −0.06
- HOMA-β change from baseline, LS mean difference (week 12, vs dapagliflozin): 2.55
- HbA1c change from baseline, LS mean difference (week 12, vs dapagliflozin): −0.04 % p
- LDL-C change from baseline, LS mean difference (week 12, vs dapagliflozin): 0.24 mg/dL
- Odds ratio for achieving HbA1c<6.5% (week 12, vs dapagliflozin): 1.44
- Odds ratio for achieving HbA1c<7% (week 12, vs dapagliflozin): 1.20
- Odds ratio, therapeutic response (HbA1c change >0.5% or HbA1c<7%) (week 12, vs dapagliflozin): 1.09
- Odds ratio, therapeutic response (HbA1c change >0.7% or HbA1c<7%) (week 12, vs dapagliflozin): 1.30
- Odds ratio, therapeutic response (HbA1c change >1% or HbA1c<7%) (week 12, vs dapagliflozin): 1.31
- UACR change from baseline, LS mean difference (week 12, vs dapagliflozin): -3.35 g/kg
- UGCR change from baseline, LS mean difference (week 12, vs dapagliflozin): 13.37 mg/mg
- adiponectin change from baseline, LS mean difference (week 12, vs dapagliflozin): 0.19 µg/mL
- body weight change from baseline, LS mean difference (week 12, vs dapagliflozin): -0.01 kg
- diastolic blood pressure change from baseline, LS mean difference (week 12, vs dapagliflozin): −2.04 mmHg
- fasting C-peptide change from baseline, LS mean difference (week 12, vs dapagliflozin): -0.02 ng/mL
- leptin change from baseline, LS mean difference (week 12, vs dapagliflozin): -0.28 ng/mL
- systolic blood pressure change from baseline, LS mean difference (week 12, vs dapagliflozin): −1.37 mmHg
- total cholesterol change from baseline, LS mean difference (week 12, vs dapagliflozin): 1.40 mg/dL
- triglyceride change from baseline, LS mean difference (week 12, vs dapagliflozin): 8.79 mg/dL
- Change from baseline in HDL-C, ANCOVA LS mean difference [2]: 0.34 mg/dL
- Change from baseline in LDL-C, ANCOVA LS mean difference [2]: 0.24 mg/dL
- Change from baseline in total cholesterol, ANCOVA LS mean difference [2]: 1.40 mg/dL
- Change from baseline in triglycerides, ANCOVA LS mean difference [2]: 8.79 mg/dL
- Change from baseline in HDL-C, ANCOVA LS mean [3]: 3.18 mg/dL
- Change from baseline in HDL-C, Mean [3]: 3.17 mg/dL
- Change from baseline in HDL-C, Median [3]: 3.00 mg/dL
- Change from baseline in LDL-C, ANCOVA LS mean [3]: 2.95 mg/dL
- Change from baseline in LDL-C, Mean [3]: 3.76 mg/dL
- Change from baseline in LDL-C, Median [3]: 3.00 mg/dL
- Change from baseline in total cholesterol, ANCOVA LS mean [3]: 6.80 mg/dL
- Change from baseline in total cholesterol, Mean [3]: 7.79 mg/dL
- Change from baseline in total cholesterol, Median [3]: 7.00 mg/dL
- Change from baseline in triglycerides, ANCOVA LS mean [3]: -3.23 mg/dL
- Change from baseline in triglycerides, Mean [3]: 0.59 mg/dL
- Change from baseline in triglycerides, Median [3]: -3.00 mg/dL
- Fasting HDL-C, Mean [3]: 49.21 mg/dL
- Fasting HDL-C, Median [3]: 47.50 mg/dL
- Fasting LDL-C, Mean [3]: 75.11 mg/dL
- Fasting LDL-C, Median [3]: 72.00 mg/dL
- Fasting total cholesterol, Mean [3]: 142.09 mg/dL
- Fasting triglycerides, Mean [3]: 118.98 mg/dL
- Fasting triglycerides, Median [3]: 98.50 mg/dL
- fasting Total cholesterol, Median [3]: 136.00 mg/dL
- Change from baseline in diastolic blood pressure, ANCOVA LS mean [4]: −4.30 mmHg
- Change from baseline in diastolic blood pressure, LS mean difference (enavogliflozin − dapagliflozin) [4]: −2.04 mmHg
